Where a name gives a salt, the structure may show the parent alone.
Experiments:
human RORγt LBD = human RORγt LBD (Homo sapiens (Human), UniProt P51449); test: RORγt reporter assay (GAL4-RORγt LBD luciferase in HEK293T cells); type: cell-based; details: for IC50: 24 hours compound treatment; for inhibition at 6 µM: HEK-293T, read-out: RORγt reporter Assay, % inhibition @ 6 μM, HEK293T cells, 6 μM
From the text: A reporter assay was used to test functional activity of RORγt modulatory compounds on transcriptional activation driven by the RORγt LBD. Cells used in the assay were co-transfected with two constructs. The first construct, pBIND-RORγt LBD, contained the wild type human RORγt LBD fused to the DNA binding domain of the GAL4 protein. The second construct, pGL4.31 (Promega Cat no. C935A), contained multiple GAL4 responsive DNA elements upstream of firefly luciferase. […] The mutant construct was called pBIND-RORγt-AF2.
The pBIND vector contains the GAL4 DNA Binding Domain (GAL4 DBD) and the renilla luciferase gene under control of the SV40 promoter. Renilla luciferase expression serves as a control for transfection efficiency and cell viability.
The reporter assay was performed by transiently transfecting HEK293T cells with 5 ng of pBIND-RORγt LBD or pBIND-RORγt LBD-AF2 and 5 μg pGL4.31 (Promega Cat no. C935A) using Fugene 6 ([…] Cat no. E2691) at a 1:6 ratio of DNA: Fugene 6 in a T-75 flask in which cells were at least 80% confluent. Twenty four hours after bulk transfection, cells were plated into 96-well plates at 50,000 cells/well in phenol-red free DMEM containing 5% Lipid Reduced FCS and Pen/Strep. Six hours after plating, cells were treated with compounds for 24 hours. Media was removed and cells were lysed with 50 μL 1× Glo Lysis Buffer (Promega). Dual Glo Luciferase Reagent (50 μL/well) was then added and firefly luciferase luminescence was read on an Envision after a ten minute incubation. Finally, Stop and Glo reagent (50 μL/well) was added and renilla luciferase luminescence was read on an Envision after a ten minute incubation. To calculate the effect of compounds on RORγt activity, the ratio of firefly to renilla luciferase was determined and plotted against compound concentration. Agonist compounds increase RORγt-driven luciferase expression, and antagonist or inverse agonist compounds decrease luciferase expression.

[1] = biological target: human RORγt ligand binding domain (RORγt LBD) (Homo sapiens (Human), UniProt P51449); test: RORγt ThermoFluor assay (thermal shift binding affinity); details: estimated from thermal shift
Sequence of human RORγt ligand binding domain (RORγt LBD) (P51449 other isoform, or with tags, fused parts or gaps): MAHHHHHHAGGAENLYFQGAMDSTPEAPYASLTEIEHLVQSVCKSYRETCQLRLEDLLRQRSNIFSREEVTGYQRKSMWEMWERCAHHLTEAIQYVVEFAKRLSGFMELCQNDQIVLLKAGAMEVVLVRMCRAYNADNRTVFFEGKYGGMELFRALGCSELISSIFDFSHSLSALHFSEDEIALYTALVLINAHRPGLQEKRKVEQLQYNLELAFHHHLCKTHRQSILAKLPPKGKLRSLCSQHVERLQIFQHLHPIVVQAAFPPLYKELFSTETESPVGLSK
Protocol: This approach is applicable to a wide variety of systems, and rigorous in theoretical interpretation through quantitation of equilibrium binding constants (KD).
The shift in the melting point described as a ΔTm is proportional to the concentration and affinity of the ligand.
RORγt ThermoFluor® Assay Construct
Protein and compound solutions are dispensed into black 384-well polypropylene PCR microplates (Abgene) and overlayed with silicone oil (1 μL, Fluka, type DC 200) to prevent evaporation.
Bar-coded assay plates are robotically loaded onto a thermostatically controlled PCR-type thermal block and then heated at a typical ramp-rate of 1° C./min for all experiments. Fluorescence was measured by continuous illumination with UV light (Hamamatsu LC6) supplied via fiber optic and filtered through a band-pass filter (380-400 nm; >6 OD cutoff). Fluorescence emission of the entire 384-well plate was detected by measuring light intensity using a CCD camera (Sensys, Roper Scientific) filtered to detect 500±25 nm, resulting in simultaneous and independent readings of all 384 wells. Images were collected at each temperature, and the sum of the pixel intensity in a given area of the assay plate was recorded versus temperature. Reference wells contained RORγt without compounds, and the assay conditions were as follows: • 0.065 mg/mL RORγt • 60 μM 1,8-ANS • 100 mM Hepes, pH 7.0 • 10 mM NaCl • 2.5 mM GSH • 0.002% Tween-20
Project compounds were arranged in a pre-dosed mother plate (Greiner Bio-one) wherein compounds are serially diluted in 100% DMSO by 1:2 from a high concentration of 10 mM over 12 columns within a series (column 12 is a reference well containing DMSO, no compound). The compounds were robotically dispensed directly into assay plates (1×=46 nL) using a Hummingbird capillary liquid handling instrument (Digilab). Following compound dispense, protein and dye in buffer was added to achieve the final assay volume of 3 μL, followed by 1 μL of silicone oil.

Sequence of human RORγt LBD (P51449 258-518): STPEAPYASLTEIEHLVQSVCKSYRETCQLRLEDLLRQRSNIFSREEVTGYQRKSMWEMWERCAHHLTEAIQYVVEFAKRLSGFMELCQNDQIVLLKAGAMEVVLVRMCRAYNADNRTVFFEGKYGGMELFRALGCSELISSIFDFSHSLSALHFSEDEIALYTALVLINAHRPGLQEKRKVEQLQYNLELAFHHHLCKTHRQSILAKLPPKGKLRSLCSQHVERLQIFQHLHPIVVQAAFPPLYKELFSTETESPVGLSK

Row | Structure (SMILES) | IC50 (human RORγt LBD; HEK293T cells) [µM] | inhibition at 6 µM (human RORγt LBD) [%] | Kd [1] [µM] | RORγt reporter Assay, % inhibition @ 6 μM (human RORγt LBD; HEK293T cells, 6 μM) [%]
1 | COc1nc2ccc(C(O)(c3ccccc3)C3CCN(C(C)=O)CC3)cc2c(Cl)c1Cc1ccc(-n2cccn2)cc1 (racemic) [Example 83A, 1-(4-((3-(4-(1H-Pyrazol-1-yl)benzyl)-4-chloro-2-methoxyquinolin-6-yl)(hydroxy)(phenyl)methyl)piperidin-1-yl)ethanone] | 0.039 | 104 | 0.012 | –
2 | COc1nc2c(C)cc(C(O)(c3ccc(Cl)cc3)c3cncn3C)cc2c(Cl)c1Cc1ccc(-n2cccn2)cc1 (single isomer, unassigned) [Example 28B, (3-(4-(1H-pyrazol-1-yl)benzyl)-4-chloro-2-methoxy-8-methylquinolin-6-yl)(4-chlorophenyl)(1-methyl-1H-imidazol-5-yl)methanol] | 1.1 | 90 | 1.6 | –
3 | COc1nc2ccc(C(O)(c3ccc(Cl)cc3)c3cncn3C)cc2c(Cl)c1Cc1cc2ccccc2s1 (single isomer, unassigned) [Example 36B, (3-(benzo[b]thiophen-2-ylmethyl)-4-chloro-2-methoxyquinolin-6-yl)(4-chlorophenyl)(1-methyl-1H-imidazol-5-yl)methanol] | 0.74 | – | 0.4 | 62
4 | COc1nc2ccc(C(O)(c3ccc(F)cc3)c3cncn3C)cc2c(Cl)c1Cc1ccc(S(C)(=O)=O)cc1 (single isomer, unassigned) [Example 54B, (4-chloro-2-methoxy-3-(4-(methylsulfonyl)benzyl)quinolin-6-yl)(4-fluorophenyl)(1-methyl-1H-imidazol-5-yl)methanol] | 2 | 86 | 0.84 | –
5 | Cn1cncc1C(O)(c1ccc(Cl)cc1)c1ccc2nc(O)c(Cc3ccc(-n4cccn4)cc3)c(Cl)c2c1 (single isomer, unassigned) [Example 55B, 3-(4-(1H-pyrazol-1-yl)benzyl)-4-chloro-6-((4-chlorophenyl)(hydroxy)(1-methyl-1H-imidazol-5-yl)methyl)quinolin-2-ol] | 2.4 | 85 | > 81 | –
6 | OC(c1cccnc1)(c1cccc(Cl)c1)c1ccc2nc(Cl)c(Cc3ccc(Cl)cc3)c(Cl)c2c1 (stereo not drawn) [Example 2, (3-Chlorophenyl)-(2,4-dichloro-3-(4-chlorobenzyl)quinolin-6-yl)-(pyridin-3-yl)methanol.TFA] | 0.05 | 70 | – | –
7 | OC(c1cccnc1)(c1cccc(Cl)c1)c1ccc2nc(Cl)c(Cc3ccc(F)cc3)c(Cl)c2c1 (stereo not drawn) [Example 3, (3-Chlorophenyl)-(2,4-dichloro-3-(4-fluorobenzyl)quinolin-6-yl)-(pyridin-3-yl)methanol.TFA] | > 6 | 30 | – | –
8 | COc1ccc(C(O)(c2ccc3nc(Cl)c(Cc4ccc(-n5cccn5)cc4)c(Cl)c3c2)c2cncn2C)cn1 (stereo not drawn) [Example 21, (3-(4-(1H-Pyrazol-1-yl)benzyl)-2,4-dichloroquinolin-6-yl)(6-methoxypyridin-3-yl)(1-methyl-1H-imidazol-5-yl)methanol.TFA] | – | 103 | – | –
9 | COc1ccc(Cc2cc3cc(C(O)(c4cncs4)c4cncn4C)ccc3nc2Cl)cc1 (stereo not drawn) [Example 52, (2-chloro-3-(4-methoxybenzyl)quinolin-6-yl)(1-methyl-1H-imidazol-5-yl)(thiazol-5-yl)methanol.TFA] | > 6 | 34 | – | –
10 | COc1nc2ccc(C(O)(c3ccc(C(F)(F)F)nc3)c3cncn3C)cc2c(Cl)c1Cc1ccc(S(C)(=O)=O)cc1 (stereo not drawn) [Example 53, (4-Chloro-2-methoxy-3-(4-(methylsulfonyl)benzyl)quinolin-6-yl)(1-methyl-1H-imidazol-5-yl)(6-(trifluoromethyl)pyridin-3-yl)methanol] | 0.046 | 101 | – | –

Results, then the compound that gave them:

Row | IC50 (human RORγt LBD; HEK293T cells) [µM] | inhibition at 6 µM (human RORγt LBD) [%] | Kd [1] [µM] | RORγt reporter Assay, % inhibition @ 6 μM (human RORγt LBD; HEK293T cells, 6 μM) [%] | Structure (SMILES)
11 | 0.029 | 100 | 0.0025 | – | Cn1cncc1C(O)(c1ccc(C(F)(F)F)nc1)c1ccc2nc(N3CCC3)c(Cc3ccc(C(F)(F)F)cc3)c(Cl)c2c1 (racemic) [Example 92A, (2-(Azetidin-1-yl)-4-chloro-3-(4-(trifluoromethyl)benzyl)quinolin-6-yl)(1-methyl-1H-imidazol-5-yl)(6-(trifluoromethyl)pyridin-3-yl)methanol]
12 | – | 101 | – | – | COc1nc2ccc(C(O)(c3ccc(Cl)cc3)c3cncn3C)cc2c(Cl)c1Cc1ccc(-n2cncn2)cc1 (single isomer, unassigned) [Example 64B, (3-(4-(1H-1,2,4-triazol-1-yl)benzyl)-4-chloro-2-methoxyquinolin-6-yl)(4-chlorophenyl)(1-methyl-1H-imidazol-5-yl)methanol]
13 | – | 94 | – | – | COc1nc2ccc(C(O)(c3ccc(C)nc3C)c3cnnn3C)cc2c(C#N)c1Cc1ccc(C(F)(F)F)cc1 (single isomer, unassigned) [Example 78B, 6-((2,6-Dimethylpyridin-3-yl)(hydroxy)(1-methyl-1H-1,2,3-triazol-5-yl)methyl)-2-methoxy-3-(4-(trifluoromethyl)benzyl)quinoline-4-carbonitrile]
14 | – | 99 | – | – | COc1nc2ccc(C(O)(c3ccc(Cl)cc3)c3cncn3C)cc2c(Cl)c1Cc1ccc(-n2cncn2)cc1 (stereo not drawn) [Example 64A, (3-(4-(1H-1,2,4-Triazol-1-yl)benzyl)-4-chloro-2-methoxyquinolin-6-yl)(4-chlorophenyl)(1-methyl-1H-imidazol-5-yl)methanol]
15 | 0.11 | 97 | – | – | Cn1cncc1C(O)(c1ccc(Cl)cc1)c1ccc2nc(C#N)c(Cc3ccc(-n4cccn4)cc3)c(C#N)c2c1 (stereo not drawn) [Example 71A, 3-(4-(1H-Pyrazol-1-yl)benzyl)-6-((4-chlorophenyl)(hydroxy)(1-methyl-1H-imidazol-5-yl)methyl)quinoline-2,4-dicarbonitrile]
16 | – | 103 | – | – | COc1nc2ccc(C(O)(c3ccc(C)nc3C)c3cnnn3C)cc2c(Cl)c1Cc1ccc(C(F)(F)F)cc1 (stereo not drawn) [Example 77A, (4-Chloro-2-methoxy-3-(4-(trifluoromethyl)benzyl)quinolin-6-yl)(2,6-dimethylpyridin-3-yl)(1-methyl-1H-1,2,3-triazol-5-yl)methanol]
17 | – | 97 | – | – | COc1nc2ccc(C(O)(c3ccc(C)nc3C)c3cnnn3C)cc2c(C#N)c1Cc1ccc(C(F)(F)F)cc1 (stereo not drawn) [Example 78A, 6-((2,6-Dimethylpyridin-3-yl)(hydroxy)(1-methyl-1H-1,2,3-triazol-5-yl)methyl)-2-methoxy-3-(4-(trifluoromethyl)benzyl)quinoline-4-carbonitrile]
18 | – | 103 | – | – | COc1nc2ccc(C(O)(c3cnnn3C)c3cnc(C)n3C)cc2c(Cl)c1Cc1ccc(C(F)(F)F)cc1 (stereo not drawn) [Example 80A, (4-Chloro-2-methoxy-3-(4-(trifluoromethyl)benzyl)quinolin-6-yl)(1,2-dimethyl-1H-imidazol-5-yl)(1-methyl-1H-1,2,3-triazol-5-yl)methanol]
19 | – | 100 | – | – | CCc1nc2ccc(C(O)(c3cnnn3C)C3CN(S(C)(=O)=O)C3)cc2c(Cl)c1Cc1ccc(C(F)(F)F)cc1 (stereo not drawn) [Example 91A, (4-Chloro-2-ethyl-3-(4-(trifluoromethyl)benzyl)quinolin-6-yl)(1-methyl-1H-1,2,3-triazol-5-yl)(1-(methylsulfonyl)azetidin-3-yl)methanol]
